Results published in PubChem BioAssay (NCI).
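Step 1: Grow cells in 96-well plates. Step 2: Expose to compound for 48 hours at 5 concentrations. Step 3: Interpolate endpoints linearly; if unreached, use highest concentration. TGI marks complete inhibition of growth.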

Experiments:
Experiment in all cases: growth of human tumour cells (NCI), 48 h
[1] = test system: NCI-H460 lung
[2] = test system: SK-MEL-28 melanoma
[3] = test system: HOP-62 NSCLC
[4] = test system: NCI/ADR-RES ovarian
[5] = test system: HL-60(TB) leukemia
[6] = test system: TK-10 renal
[7] = test system: MOLT-4 leukemia
[8] = test system: NCI-H23 lung
[9] = test system: U251 CNS
[10] = test system: HCT-15 colon

Measured: TGI

CN(C)CCN(C)P12(Oc3ccccc3O1)Oc1c(Cl)c(Cl)c(Cl)c(Cl)c1O2
40.9 µM: [5]
> 100 µM: all other assays above
